Source: patent US12083115B2, “Methods for treating neurological symptoms associated with lysosomal storage diseases” (Genzyme Corporation, priority 2020, dated 2024)

How the values were obtained:
[1] = system: glucosylsphingosine (lyso-GL1); assay: Clinical study in GD-3 patients: lyso-GL1 in plasma and CSF; type: in vivo, human; conditions: for Lyso-GL-1 (% change): 52-weeks compared to baseline; for Lyso-GL-1 concentration, 52-weeks (mean) / Lyso-GL-1 concentration, 52-weeks: 15 mg/day + imiglucerase; for Lyso-GL-1 concentration, 52-weeks: all six patients
Description: (§1) The endpoint assessments are related to safety, CSF biomarkers, pharmacokinetics/pharmacodynamics, systemic disease, and neuroimaging and neurological function (CNS/neurological manifestations).
(§2) During the study patients were evaluated for safety and tolerability, CSF and plasma biomarkers (glucosylceramide, GL-1; glucosylsphingosine, lyso-GL1), pharmacokinetics, markers for systemic disease (spleen and liver volume measured by magnetic resonance imaging (MRI), platelet count, hemoglobin levels), indicia of interstitial lung disease (high resolution pulmonary computed tomography (CT)), and horizontal saccadic eye movement. In addition, exploratory biomarkers were quantified in CSF of GD3 patients: ceramide (the precursor of GL-1), chitotriosidase (CHITO), GM3, and GPNMB. Symptoms of ataxia were measured using the SARA scale, neurological symptoms were measured using the trail making test, and functional MRI was used to assess neural connectivity in the brain.
(§3) Over all six GD3 patients, plasma and CSF GL-1 and lyso-GL-1 concentrations were as follows:
(§4) At Week 52, the CSF lyso-GL1 concentrations for Patient 5 were above the upper limit of quantification (ULOQ; >100 pg/mL), and biomarker results for CSF lyso-GL1 were therefore imputed using the exact ULOQ values. […] Mean results for the other study subjects were as follows (N=10; Patient 5 excluded): […]

[2] = system: GM3 expression in B16 mouse melanoma cells; assay: GM3 fluorescent-linked immunosorbent assay (FLISA), B16; type: cell-based; conditions: 48 hours
From the text: Inhibition of glucosylceramide synthase activity can be measured with one or more assays. A first assay is a microsomal assay that directly measures the conversion of ceramide to glucosylceramide by HPLC. Microsomes are a source of glucosylceramide synthase activity in the microsomal assay. A second assay is a cell based, phenotypic assay that monitors cell surface expression of the downstream lipid GM3 by antibody mediated immunofluorescence. Specific protocols are provided below.
This is a phenotypic assay that measures GM3 expression in B16 mouse melanoma or C32 human melanoma cells following treatment with test compounds. Cell surface GM3 expression is determined by antibody mediated fluorescence.
Compounds are diluted in media and plated in 384 well plates in DMSO. B16 and C32 cells are assayed at densities of 20,000 cells/ml and 62,500 cells/ml, respectively, per well. Each titration curve contains 10 points that are assayed in duplicate on each test run. The plates are incubated for 48 hours at 37° C., 5% CO2, and are then washed once with TBS. Anti-GM3 antibody is added to each well and the plates are then incubated for an additional one hour at room temperature. Plates are subsequently washed twice and incubated for an additional hour with the labeled secondary antibody. Following the final incubation, the plates are washed twice and the fluorescence at λex=D640/20 nm and λem=657 nm is detected on a fluorescent reader.
The results of the microsomal assays are expressed as “GCS IC50,” which represents the concentration of the compound causing 50% inhibition of glucosylceramide synthase activity. The results of the cell-based assays are expressed as “GM3 B16 IC50” or “GM3 C32 IC50” for the B16 assay and the C32 assay, respectively. These values represent the concentration of the compound causing 50% inhibition of GM3 expression on the cell surface.

[3] = Study 1 Part 2: PK with and without a high-fat meal; type: in vivo, human; conditions: 5 mg single dose
From the text: Study 1 was a 2-part single-center trial in healthy adult male volunteers.
After a 7-day washout period, participants were crossed over to the other condition.

[4] = system: glucosylceramide (GL-1); assay: Clinical study in GD-3 patients: GL-1 in plasma and CSF; type: in vivo, human; conditions: for GL-1 (% change): 52-weeks compared to baseline; for GL-1 concentration, 52-weeks (mean) / GL-1 concentration, 52-weeks: 15 mg/day + imiglucerase; for GL-1 concentration, 52-weeks: all six patients
Description: as §1, §2, §3, §4

[5] = Clinical study in GD-3 patients (LEAP): Compound 2 concentrations in plasma and CSF; type: in vivo, human
From the text: as §1
Patients 18 years of age or older with a clinical diagnosis of GD3 and documented deficiency of acid beta-glucosidase activity having received treatment with ERT for at least 3 years and with imiglucerase (Cerezyme) at a stable monthly dose for at least 6 months prior to enrollment were included in the study. Patients must have reached the following GD therapeutic goals: hemoglobin level of ≥11.0 g/dL for females and ≥12.0 g/dL for males; platelet count 100 000/mm^3; spleen volume <10 multiples of normal (MN), or total splenectomy (provided the splenectomy occurred ≥3 years prior to randomization); liver volume <1.5 MN; and no bone crisis and free of symptomatic bone disease such as bone pain attributable to osteonecrosis and/or pathological fractures within the last year. Patients must have GD3 featuring oculomotor apraxia (supranuclear gaze palsy) characterized by a horizontal saccade abnormality.
as §2
It is believed that this is due to either compliance or dosing errors, and therefore, analysis is repeated without Patient 5's Week 26 and 52 data included.

[6] = CSF Concentration, N = 6, 15 mg/day + imiglucerase
[7] = CSF Concentration, N=10, Patient 5 excluded
[8] = Patient 5 (reduced Compound 2 exposure), Week 52 compared to baseline
[9] = Plasma Concentration, N = 6, 15 mg/day + imiglucerase
[10] = Plasma Concentration, N=10, Patient 5 excluded
[11] = plasma, Day 1, N = 11, 15 mg/day + imiglucerase

In the case of `CC(C)(NC(=O)O[C@@H]1CN2CCC1CC2)c1csc(-c2ccc(F)cc2)n1` [Compound 2, (S)-quinuclidin-3-yl 2-(2-(4-fluorophenyl)thiazol-4-yl)propan-2-ylcarbamate], the “Lyso-GL-1 (% change)” value [1, 6] is reported as −55.9%, the “Lyso-GL-1 (% change)” value [1, 7] is reported as −68% ± 17.2% and the “Lyso-GL-1 concentration, 52-weeks (mean)” value ([1]; CSF, N=10, Patient 5 excluded, Baseline 45.0 pg/mL) is reported as 14.5 pg/mL. The “Lyso-GL-1 concentration, 52-weeks” value ([1]; CSF, Baseline 34.0 pg/mL) was 17.3 pg/mL, the “increase in plasma lyso-GL1” value [1, 8] was “about 43%” and the “increase in CSF lyso-GL1” value ([1]; Patient 5 (reduced Compound 2 exposure), Week 52 compared to baseline, imputed with ULOQ) was “about 313%”. The “CSF lyso-GL1 concentration” value ([1]; Patient 5, Week 52, above ULOQ) was > 100 pg/mL, the “Lyso-GL-1 (% change)” value [1, 9] was −56.7% and the “Lyso-GL-1 (% change)” value [1, 10] was −53% ± 13.5%. For the same molecule, the “Lyso-GL-1 concentration, 52-weeks (mean)” value ([1]; Plasma, N=10, Patient 5 excluded, Baseline 27.6 ng/ml) was 13600 pg/mL, the “Lyso-GL-1 concentration, 52-weeks” value ([1]; Plasma, Baseline 29.3 ng/ml) was 15200 pg/mL and the IC50 [2] was 107 µM. For the same molecule, the “effect of a high-fat meal on Compound 2 exposure” value ([3]; high-fat meal compared with fasting) was “no effect”, the Tmax ([3]; male, human, plasma, oral, whether fed or fasting, read-out: Median tmax) was 6 h and the “GL-1 (% change)” value [4, 6] was −55.4%. The “GL-1 (% change)” value [4, 7] was −79% ± 12.1%, the “GL-1 concentration, 52-weeks (mean)” value ([4]; CSF, N=10, Patient 5 excluded, Baseline 7.11 ng/ml) was 1.38 ng/mL and the “GL-1 concentration, 52-weeks” value ([4]; CSF, Baseline 6.36 ng/ml) was 2.48 ng/mL. For the same molecule, the “increase in CSF GL1” value [4, 8] was ~37%, the “increase in plasma GL1” value [4, 8] was ~14% and the “GL-1 (% change)” value [4, 9] was −71.6%. For the same molecule, the “GL-1 (% change)” value [4, 10] was −77% ± 11.7%, the “GL-1 concentration, 52-weeks (mean)” value ([4]; Plasma, N=10, Patient 5 excluded, Baseline 5.66 μg/mL) was 1280 ng/mL and the “GL-1 concentration, 52-weeks” value ([4]; Plasma, Baseline 6.21 μg/mL) was 1590 ng/mL. For the same molecule, the “Concentration 2-4 hours post dose (mean ± SD)” value ([5]; CSF, Day 1, N = 6, 15 mg/day + imiglucerase) was “<LLOQ”, the “Concentration 2-4 hours post dose (mean ± SD)” value ([5]; CSF, Week 4, N = 6, 15 mg/day + imiglucerase) was 4.56 ± 1.20 ng/mL and the “Concentration 2-4 hours post dose (mean ± SD)” value ([5]; CSF, Week 4, N = 10 (Patient 5 excluded), 15 mg/day + imiglucerase) was 6.63 ± 2.42 ng/mL. For the same molecule, the “Concentration 2-4 hours post dose” value ([5]; CSF, Week 4, Patient 5 Only) was 3.05 ng/mL, the “Concentration 2-4 hours post dose (mean)” value ([5]; CSF, Week 26, Excluding Patient 5, 15 mg/day + imiglucerase) was 6.13 ng/mL and the “Concentration 2-4 hours post dose (mean ± SD)” value ([5]; CSF, Week 26, N = 6, 15 mg/day + imiglucerase) was 5.26 ± 2.49 ng/mL. The “Concentration 2-4 hours post dose (mean ± SD)” value ([5]; CSF, Week 26, N = 8 (Patient 5 excluded), 15 mg/day + imiglucerase) was 6.77 ± 1.96 ng/mL, the “Concentration 2-4 hours post dose” value ([5]; CSF, Week 26, Patient 5 Only) was 1.77 ng/mL and the “Concentration 2-4 hours post dose (mean)” value ([5]; CSF, Week 52, Excluding Patient 5, 15 mg/day + imiglucerase) was 5.32 ng/mL. For the same molecule, the “Concentration 2-4 hours post dose (mean ± SD)” value ([5]; CSF, Week 52, N = 6, 15 mg/day + imiglucerase) was 4.43 ± 3.23 ng/mL, the “Concentration 2-4 hours post dose (mean ± SD)” value ([5]; CSF, Week 52, N = 10 (Patient 5 excluded), 15 mg/day + imiglucerase) was 6.14 ± 3.44 ng/mL and the “Concentration 2-4 hours post dose” value ([5]; CSF, Week 52, Patient 5 Only) was “<LLOQ”. The “steady state concentration reached in plasma and CSF” value ([5]; GD3 patients, 15 mg/day + imiglucerase) was ≤ 4 Week, the “plasma and CSF concentrations under co-treatment with CYP3A4 inducer rifampicin” value ([5]; Patient 1, 52-week measurement, rifampicin Week 39 to Week 51) was “significant drop in plasma and CSF concentrations” and the “lower concentrations of Compound 2 in plasma and CSF” value ([5]; Patient 5, Week 26 (compliance or dosing errors believed)) was “about 50%”. For the same molecule, the “concentrations of Compound 2 in plasma and CSF” value ([5]; Patient 5, Week 52) was “undetectable”, the “Concentration 2-4 hours post dose (mean ± SD)” value ([5]; Plasma, Week 4, N = 10 (Patient 5 excluded), 15 mg/day + imiglucerase) was 116 ± 48.1 ng/mL and the “Concentration 2-4 hours post dose” value ([5]; Plasma, Week 4, Patient 5 Only) was 102 ng/mL. For the same molecule, the “Concentration 2-4 hours post dose (mean ± SD)” value ([5]; Plasma, Week 26, N = 10 (Patient 5 excluded), 15 mg/day + imiglucerase) was 120 ± 40.1 ng/mL, the “Concentration 2-4 hours post dose” value ([5]; Plasma, Week 26, Patient 5 Only) was 53.3 ng/mL and the “Concentration 2-4 hours post dose (mean ± SD)” value ([5]; Plasma, Week 52, N = 10 (Patient 5 excluded), 15 mg/day + imiglucerase) was 114 ± 65.8 ng/mL. The “Concentration 2-4 hours post dose” value ([5]; Plasma, Week 52, Patient 5 Only) was “<LLOQ”, the “crossing of the blood-brain barrier” value ([5]; from plasma and CSF concentrations, N = 6, 15 mg/day + imiglucerase) was “effectively cross the blood-brain barrier in all patients” and the “Concentration 2-4 hours post dose (mean ± SD)” value ([5]; plasma, Day 1, N = 6, 15 mg/day + imiglucerase) was 39.7 ± 12.6 ng/mL. The “AUC0-24 (mean ± SD)” value [5, 11] was 851 ± 282 ng·h/mL, the “Cmax (mean ± SD)” value [5, 11] was 58.1 ± 26.4 ng/mL and the “Concentration 2-4 hours post dose (mean ± SD)” value ([5]; plasma, Week 4, N = 6, 15 mg/day + imiglucerase) was 92.3 ± 36.4 ng/mL. For the same molecule, the “Concentration 2-4 hours post dose (mean)” value ([5]; plasma, Week 26, Excluding Patient 5, 15 mg/day + imiglucerase) was 112 ng/mL, the “Concentration 2-4 hours post dose (mean ± SD)” value ([5]; plasma, Week 26, N = 6, 15 mg/day + imiglucerase) was 102.0 ± 49.5 ng/mL and the “Concentration 2-4 hours post dose (mean)” value ([5]; plasma, Week 52, Excluding Patient 5, 15 mg/day + imiglucerase) was 84 ng/mL. For the same molecule, the “Concentration 2-4 hours post dose (mean ± SD)” value ([5]; plasma, Week 52, N = 6, 15 mg/day + imiglucerase) was 69.8 ± 58.3 ng/mL.
